Results published in US20230233469A1, “SEMI-SOLID FORMULATION FOR VOLUNTARY ORAL ADMINISTRATION OF BIOACTIVE COMPOUNDS TO RODENTS” (priority 2020, published 2023).

Conditions: 80 mg/Kg body weight in semi-solid pill
Source text: Data are presented as mean±S.E.M. (n=6-8 experimental group).

SMILES: CC(=O)CC(c1ccccc1)c1c(O)c2ccccc2oc1=O (centres unmarked) [warfarin]
- day of euthanasia for critical signs of illness (e.g. bleeding): 8 days
- day post-administration from which poor health status and evident signs of toxicity appeared: 4 days
